Structures are written as SMILES.

One test concerns PDE4. The test can be described thus: PDE4 inhibition, scintillation proximity assay (SPA).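 As to PDE4 Inhibitory Activity (concentration for the inhibition rate of 50%): A below 100 nM B 100 to below 1000 nM C 1000 nM or more.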 Type of test: biochemical. Conditions: scintillation proximity assay (SPA); evaluated as classes A, B, C; read-out: PDE4 Inhibitory Activity (concentration for the inhibition rate of 50%). The protocol:
The PDE4 inhibitory activity was measured using scintillation proximity assay (SPA) as follows. A sample compound dissolved in dimethyl sulfoxide was diluted 1:10 in reaction buffer solution which contained 50 mM of Tris-HCl with pH 7.4, 8.3 mM of MgCl2, 1.7 mM of EGTA, and 3 mg/mL of bovine serum albumin (BSA). Then, 10 μL of the diluted solution was added in a 96-well assay plate. Moreover, 50 μL of PDE4 diluted 1:375 in the reaction buffer solution was added, and then 40 μL of [2,8-^3H]-adenosine-3′,5′-cyclic phosphate triethylammonium salt diluted 1:1000 in the reaction buffer solution was added. The mixture was allowed to stand at room temperature for 120 minutes. Thereafter, […] of RNA binding YSi-SPA beads suspension containing ZnSO4 was added and the mixture was allowed to stand at room temperature for 15 minutes, followed by adsorption of the enzyme reaction product to the beads. After that, the radioactivity was measured using a liquid scintillation counter for a 96-well plate. The mixture without the enzyme preparation added but only the reaction buffer solution added is a blank, and the mixture with the enzyme preparation added and only dimethyl sulfoxide added instead of the sample solution is a control.
(In general: Scintillation proximity formats need no separation of bound from free tracer.)
In the case of `CCOC(=O)c1cc(-c2nccs2)c2oc(N3CC4CCCC(C3)N4)nc2c1` [Example 89, Ethyl 2-(3,9-diazabicyclo[3.3.1]nonan-3-yl)-7-(thiazol-2-yl) benzo[d]oxazole-5-carboxylate], the IC50 is under 100 nM.

With `COc1cc(-c2nccs2)c2oc(N3CC4CCC(C3)N4)nc2c1` [Example 60, 2-(3,8-Diazabicyclo[3.2.1]octan-3-yl)-5-methoxy-7-(thiazol-2-yl)benzo[d]oxazole], the IC50 was under 100 nM.

As to `COC(c1cc(-c2nccs2)c2oc(N3CC4CCCC(C3)N4)nc2c1)C(F)(F)F` (stereo not shown) [Example 145, 2-(3,9-Diazabicyclo[3.3.1]nonan-3-yl)-7-(thiazol-2-yl)-5-(2,2,2-trifluoro-1-methoxyethyl)benzo[d]oxazole], the IC50 was under 100 nM.

With `CC(C)Oc1cc(-c2nccs2)c2oc(N3CC4CCC(C3)N4)nc2c1` [Example 68, 2-(3,8-Diazabicyclo[3.2.1]octan-3-yl)-5-isopropoxy-7-(thiazol-2-yl)benzo[d]oxazole], the IC50 was under 100 nM.

Consider `CCOC(=O)c1cc(-c2nccs2)c2oc(N3CC4COCC(C3)N4)nc2c1` [Example 88, Ethyl 2-(3-oxa-7,9-diazabicyclo[3.3.1]nonan-7-yl)-7-(thiazol-2-yl)benzo[d]oxazole-5-carboxylate], for which the IC50 was in the range of 100 to 1000 nM.

For the molecule `C[C@H](O)COc1ccc(-c2nccs2)c2oc(N3CC4CC(C3)N4)nc12` [Example 260, (2S)-1-((2-(3,6-diazabicyclo[3.1.1]heptan-3-yl)-7-(thiazol-2-yl)benzo[d]oxazol-4-yl)oxy)propan-2-ol], the IC50 is under 100 nM.

For `CC(C)(O)COC(c1ccc(-c2nccs2)c2oc(N3CC4CC(C3)N4)nc12)C(F)F` (stereo not shown) [Example 127, 1-(1-(2-(3,6-Diazabicyclo[3.1.1]heptan-3-yl)-7-(thiazol-2-yl)benzo[d]oxazol-4-yl)-2,2-difluoroethoxy)-2-methylpropan-2-ol], the IC50 was under 100 nM.

As for `CC(O)(c1cc(-c2nccs2)c2oc(N3CC4CCC(C3)N4)nc2c1)C(F)(F)F` (stereo not shown) [Example 159, 2-(2-(3,8-Diazabicyclo[3.2.1]octan-3-yl)-7-(thiazol-2-yl)benzo[d]oxazol-5-yl)-1,1,1-trifluoropropan-2-ol], the IC50 is under 100 nM.

Take `c1csc(-c2cc(CN3CCOCC3)cc3nc(N4CC5CCC(C4)N5)oc23)n1` [Example 168, 2-(3,8-Diazabicyclo[3.2.1]octan-3-yl)-5-(morpholinomethyl)-7-(thiazol-2-yl)benzo[d]oxazole]: the IC50 was under 100 nM.

As to `CC(C)(O)C(F)(F)OC(c1ccc(-c2nccs2)c2oc(N3CC4CC(C3)N4)nc12)C(F)(F)F` (stereo not shown) [Example 257, 1-(1-(2-(3,6-Diazabicyclo[3.1.1]heptan-3-yl)-7-(thiazol-2-yl)benzo[d]oxazol-4-yl)-2,2,2-trifluoroethoxy)-1,1-difluoro-2-methylpropan-2-ol], the IC50 was under 100 nM.

On to `OCc1ccc(-c2nccs2)c2oc(N3CC4CCCC(C3)N4)nc12` [Example 134, (2-(3,9-Diazabicyclo[3.3.1]nonan-3-yl)-7-(thiazol-2-yl)benzo[d]oxazol-4-yl)methanol], for which the IC50 is under 100 nM.

On to `CCOC(=O)c1cc(-c2nccs2)c2oc(N3CC4CCCC(C3)N4)nc2c1C(F)(F)F` [Example 164, Ethyl 2-(3,9-diazabicyclo[3.3.1]nonan-3-yl)-7-(thiazol-2-yl)-4-(trifluoromethyl)benzo[d]oxazole-5-carboxylate], for which the IC50 is under 100 nM.

For `CC(=O)c1ccc(-c2nccs2)c2oc(N3CC4CCC(C3)N4)nc12` [Example 245, 1-(2-(3,8-Diazabicyclo[3.2.1]octan-3-yl)-7-(thiazol-2-yl)benzo[d]oxazol-4-yl)ethan-1-one], the IC50 is under 100 nM.

For `CC(O)c1ccc(-c2nccs2)c2oc(N3CC4CC(C3)N4)nc12` (stereo not shown) [Example 240, 1-(2-(3,6-Diazabicyclo[3.1.1]heptan-3-yl)-7-(thiazol-2-yl)benzo[d]oxazol-4-yl)ethan-1-ol], the IC50 was under 100 nM.

As for `O=C(O)c1cc(-c2nccs2)c2oc(N3CC4CCCC(C3)N4)nc2c1OC(F)(F)F` [Example 191, 2-(3,9-Diazabicyclo[3.3.1]nonan-3-yl)-7-(thiazol-2-yl)-4-(trifluoromethoxy)benzo[d]oxazole-5-carboxylic acid], the IC50 was 100 to 1000 nM.

In the case of `COC(c1cc(-c2nccs2)c2oc(N3CC4CCC(C3)N4)nc2c1)C(F)(F)F` (stereo not shown) [Example 143, 2-(3,8-Diazabicyclo[3.2.1]octan-3-yl)-7-(thiazol-2-yl)-5-(2,2,2-trifluoro-1-methoxyethyl)benzo[d]oxazole], the IC50 is under 100 nM.

In the case of `FC(F)(F)COC(c1cc(-c2nccs2)c2oc(N3CC4CC(C3)N4)nc2c1)C(F)(F)F` (stereo not shown) [Example 151, 2-(3,6-Diazabicyclo[3.1.1]heptan-3-yl)-7-(thiazol-2-yl)-5-(2,2,2-trifluoro-1-(2,2,2-trifluoroethoxy)ethyl)benzo[d]oxazole], the IC50 was under 100 nM.

With `Oc1ccc(-c2nccs2)c2oc(N3CC4CCC(C3)N4)nc12` [Example 78, 2-(3,8-Diazabicyclo[3.2.1]octan-3-yl)-7-(thiazol-2-yl) benzo[d]oxazol-4-ol], the IC50 was under 100 nM.

In the case of `NC(=O)COC(c1ccc(-c2nccs2)c2oc(N3CC4CC(C3)N4)nc12)C(F)(F)F` (stereo not shown) [Example 256, 2-(1-(2-(3,6-Diazabicyclo[3.1.1]heptan-3-yl)-7-(thiazol-2-yl)benzo[d]oxazol-4-yl)-2,2,2-trifluoroethoxy)acetamide], the IC50 is under 100 nM.

With `COC(C)(C)c1cc(-c2nccs2)c2oc(N3CC4CCCC(C3)N4)nc2c1OC(F)(F)F` [Example 200, 2-(3,9-Diazabicyclo[3.3.1]nonan-3-yl)-5-(2-methoxypropan-2-yl)-7-(thiazol-2-yl)-4-(trifluoromethoxy)benzo[d]oxazole], the IC50 is under 100 nM.

With `COC(C)(C)c1cc(-c2nccs2)c2oc(N3CC4CC(C3)N4)nc2c1OC(F)(F)F` [Example 199, 2-(3,6-Diazabicyclo[3.1.1]heptan-3-yl)-5-(2-methoxypropan-2-yl)-7-(thiazol-2-yl)-4-(trifluoromethoxy)benzo[d]oxazole], the IC50 was under 100 nM.

Regarding `CC(C)(CO)Oc1ccc(-c2nccs2)c2oc(N3CC4CC(C3)N4)nc12` [Example 268, 2-((2-(3,6-Diazabicyclo[3.1.1]heptan-3-yl)-7-(thiazol-2-yl)benzo[d]oxazol-4-yl)oxy)-2-methylpropan-1-ol], the IC50 was under 100 nM.

In the case of `c1csc(-c2ccc(OC3CCCOC3)c3nc(N4CC5CCC(C4)N5)oc23)n1` (stereo not shown) [Example 262, 2-(3,8-Diazabicyclo[3.2.1]octan-3-yl)-4-((tetrahydro-2H-pyran-3-yl)oxy)-7-(thiazol-2-yl)benzo[d]oxazole], the IC50 is under 100 nM.

Take `COc1cc(-c2nccs2)c2oc(N3CC4CCCC(C3)N4)nc2c1` [Example 62, 2-(3,9-Diazabicyclo[3.3.1]nonan-3-yl)-5-methoxy-7-(thiazol-2-yl)benzo[d]oxazole]: the IC50 was under 100 nM.

With `CC(O)COC(c1ccc(-c2nccs2)c2oc(N3CC4CC(C3)N4)nc12)C(F)(F)F` (stereo not shown) [Example 261, 1-(1-(2-(3,6-Diazabicyclo[3.1.1]heptan-3-yl)-7-(thiazol-2-yl)benzo[d]oxazol-4-yl)-2,2,2-trifluoroethoxy)propan-2-ol], the IC50 is under 100 nM.

In the case of `c1csc(-c2ccc(OC3CCC3)c3nc(N4CC5CCC(C4)N5)oc23)n1` [Example 81, 2-(3,8-Diazabicyclo[3.2.1]octan-3-yl)-4-cyclobutoxy-7-(thiazol-2-yl)benzo[d]oxazole], the IC50 is under 100 nM.

With `FC(F)(F)Oc1c(Cl)cc(-c2nccs2)c2oc(N3CC4CCCC(C3)N4)nc12` [Example 2, 2-(3,9-Diazabicyclo[3.3.1]nonan-3-yl)-5-chloro-7-(thiazol-2-yl)-4-(trifluoromethoxy)benzo[d]oxazole], the IC50 was under 100 nM.

Still in this test, the particulars now being: scintillation proximity assay; class symbols; read-out: PDE4 Inhibitory Activity.
Turning to `CN(C)S(=O)(=O)c1ccc(-c2nccs2)c2oc(N3CC4CC(C3)N4)nc12` [Example 388, 2-(3,6-diazabicyclo[3.1.1]heptan-3-yl)-N,N-dimethyl-7-(thiazol-2-yl)benzo [d]oxazole-4-sulfonamide], the IC50 was under 100 nM.

Take `CC(O)c1cc(-c2nccs2)c2oc(N3CC4CCC(C3)N4O)nc2c1OC(F)(F)F` (stereo not shown) [Example 383, 3-(5-(1-hydroxy-ethyl)-7-(thiazol-2-yl)-4-(trifluoro-methoxy)benzo [d]oxazol-2-yl)-3,8-diazabicyclo[3.2.1] octan-8-ol]: the IC50 is over 1000 nM.

On to `CSc1ccc(-c2nccs2)c2oc(N3CC4CC(C3)N4)nc12` [Example 345, 2-(3,6-diazabicyclo[3.1.1]heptan-3-yl)-4-(methylthio)-7-(thiazol-2-yl)benzo [d]oxazole], for which the IC50 was under 100 nM.

In the case of `c1csc(-c2ccc(N3CCCC3)c3nc(N4CC5CC(C4)N5)oc23)n1` [Example 415, 2-(3,6-diazabicyclo[3.1.1]heptan-3-yl)-4-(pyrrolidin-1-yl)-7-(thiazol-2-yl)benzo [d]oxazole], the IC50 is under 100 nM.

The values are drawn from patent US10669283B2, “Compound and pharmacologically acceptable salt thereof” (MEIJI SEIKA PHARMA CO., LTD., priority 2016, dated 2020).
